The values below come from patent EP0491103B1, “Compositions for therapeutic use comprising organogermanium derivatives” (Larranaga Mendizabal, Eusebio, priority 1990, dated 1992).

For data set [1] the following is noted: as indicated in Miyao K. et al., DRUGS OF FUTURE 13, no. 5, 1988; cited from earlier work.
Data set [2] relates to macrophages obtained from the mice peritoneum. The experiment in a line: Test 2: Production of macrophages in mice (peritoneal macrophage count). The note with it: 1 ml subcutaneously every 3 days; for macrophage counts: after 30 days (10 sessions), first group, distilled water 1.0; for average macrophage counts: at 60 days (20 sessions), second group, distilled water 1.1. It is filed as in vivo, BALB/C mice.

Data set [3] has as its system macrophages removed from the second Group mice. In words: Test 2: protein synthesis (35S-met.) and DNA synthesis (3H-Thy.) in macrophages removed from treated mice and cultured in vitro for 24 hours. The note with it: macrophages of second group mice (60 days) cultured 24 hours, water-treated mice = 100%; for relative (percentage) values of DNA synthesis: ³H-Thy.; for relative (percentage) values of protein synthesis: ³⁵S-met. It is filed as in vivo, BALB/C mice. On the procedure: 15 BALB/C mice (18-20 g) were divided into two groups of 5 and 10 mice. The first group was administered 1 ml of the aqueous solutions described below every 3 days for 30 days (10 sessions), subcutaneously.
The solutions applied were as follows: a) distilled water, b) sodium thiosulphate (25 g/lit), c) formic acid (0.3 g/lit), d) above described organogermanium compound solution, and e) above described organogermanium compound plus formic acid (0.3 g/lit).
Finally, the macrophages removed from the second Group mice were cultured "in vitro" for 24 hours, protein synthesis (using ³⁵S-met. as indicator) and DNA synthesis (using ³H-Thy.) determinations being made therewith.

Consider `O=C(O)C[CH2][Ge](=[O])[O][Ge](=[O])[CH2]CC(=O)O` [Ge-132, carboxyethylgermanium sesquioxide], for which the solubility in water entry in data set [1] is “soluble in water”.

`O=CO` [formic acid]: in data set [2], the macrophage counts is 1.2 millions of microphages per millilitre and the average macrophage counts was 1.2 millions of macrophages per millilitre. Besides, in data set [3], the “relative (percentage) values of DNA synthesis” value is listed as 140% and the “relative (percentage) values of protein synthesis” value worked out at 115%.

Consider sodium thiosulphate, for which, in data set [2], the macrophage counts was 0.9 millions of microphages per millilitre and the average macrophage counts was 1.0 millions of macrophages per millilitre. Also, in data set [3], the “relative (percentage) values of DNA synthesis” value is given as 102% and the “relative (percentage) values of protein synthesis” value was determined as 98%.
